In patent US20230017045A1, “PYRIDINE AND PYRIMIDINE CARBOXYLATE HERBICIDES AND METHODS OF USE THEREOF” (Dow AgroSciences LLC, priority 2017, published 2023) one finds pest or weed control data, which are given here for 9 compounds.

This experiment relates to test plant species. In words: Post-emergent herbicidal activity test (greenhouse, foliar spray, visual growth reduction). In kind it is in vivo. Conditions: post-emergence, 336 h, 140 g ai/ha, 14 days after application. An outline of the steps:
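Scoring used a 0 to 100 percent visual scale of growth reduction against solvent-treated controls, read 14 d after spraying. Applications went onto plants at first or second true leaf stage, 187 L/ha, with crop oil concentrate and X-77 surfactant in the carrier. Post-treatment watering was by subirrigation to avoid wash-off.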

Where [1] appears, read: ALOMY: blackgrass (Alopecurus myosuroides), read-out: Visual Growth Reduction (%) 14 Days After Application, ALOMY.
The mark [2] stands for this setting: AMARE: redroot pigweed (Amaranthus retroflexus), read-out: Visual Growth Reduction (%) 14 Days After Application, AMARE.
The mark [3] stands for this setting: AVEFA: wild oat (Avena fatua), read-out: Visual Growth Reduction (%) 14 Days After Application, AVEFA.
[4] abbreviates: CHEAL: lambsquarters (Chenopodium album), read-out: Visual Growth Reduction (%) 14 Days After Application, CHEAL.
Where [5] appears, read: CIRAR: canada thistle (Cirsium arvense), read-out: Visual Growth Reduction (%) 14 Days After Application, CIRAR.
The mark [6] stands for this setting: CYPES: yellow nutsedge (Cyperus esculentus), read-out: Visual Growth Reduction (%) 14 Days After Application, CYPES.
[7] abbreviates: DIGSA: crabgrass (Digitaria sanguinalis), read-out: Visual Growth Reduction (%) 14 Days After Application, DIGSA.
Setting [8] is: ECHCG: barnyardgrass (Echinochloa crus-galli), read-out: Visual Growth Reduction (%) 14 Days After Application, ECHCG.
Where [9] appears, read: IPOHE: ivy-leaf morning glory (Ipomoea hederacea), read-out: Visual Growth Reduction (%) 14 Days After Application, IPOHE.
Setting [10] is: KCHSC: kochia (Bassia scoparia), read-out: Visual Growth Reduction (%) 14 Days After Application, KCHSC.
Setting [11] is: ORYSA: rice (Oryza sativa), read-out: Visual Growth Reduction (%) 14 Days After Application, ORYSA.
Setting [12] is: SETFA: giant foxtail (Setaria faberi), read-out: Visual Growth Reduction (%) 14 Days After Application, SETFA.
Setting [13] is: SORVU: grain sorghum (Sorghum vulgare), read-out: Visual Growth Reduction (%) 14 Days After Application, SORVU.
Setting [14] is: STEME: common chickweed (Stellaria media), read-out: Visual Growth Reduction (%) 14 Days After Application, STEME.
[15] abbreviates: TRZAS: wheat, spring (Triticum aestivum), read-out: Visual Growth Reduction (%) 14 Days After Application, TRZAS.

Each structure is given as a SMILES string. Like-named read-outs stand apart in the source and are kept apart here.

For the compound `O=C(O)c1nc(-c2ccc(C(F)(F)F)cc2F)c(F)cc1Cl` [F160, 3-Chloro-5-fluoro-6-(2-fluoro-4-(trifluoromethyl)phenyl) picolinic acid], the pest or weed control at 140 g/ha under setting [1] was in the range of 75 to 84%; the pest or weed control at 140 g/ha under setting [2] lay in the range of 95 to 100%; the pest or weed control at 140 g/ha under setting [3] fell in the range of 85 to 94%; the pest or weed control at 140 g/ha under setting [4] lay within 95 to 100%; the pest or weed control at 140 g/ha under setting [5] fell in the range of 85 to 94%; the pest or weed control at 140 g/ha under setting [6] fell in the range of 60 to 74%. Besides, the pest or weed control at 140 g/ha runs as follows: under setting [7], 85 to 94%; under setting [8], 95 to 100%; under setting [9], 95 to 100%; under setting [10], 95 to 100%; under setting [11], 60 to 74%; under setting [12], 85 to 94%. For the same compound, the pest or weed control at 140 g/ha lay within 95 to 100% under setting [13], 30 to 44% under setting [14] and 85 to 94% under setting [15].

Consider `COC(=O)c1nc(-c2ccc(OC(F)F)cc2OC)c(F)cc1Cl` [F161 (F393)], for which the pest or weed control at 140 g/ha reads like this: under setting [1], 0 to 29%; under setting [2], 95 to 100%; under setting [3], 75 to 84%; under setting [4], 85 to 94%; under setting [5], 85 to 94%; under setting [6], 0 to 29%. Further, the pest or weed control at 140 g/ha under setting [7] was in the range of 45 to 59%.

For the compound `COC(=O)c1nc(-c2ccc(OC(F)F)cc2OC)c(F)cc1Cl` [F161, Methyl 3-chloro-6-4-(difluoromethoxy)-2-methoxyphenyl)-5-fluoropicolinate], the pest or weed control at 140 g/ha by setting is: under setting [8], 85 to 94%; under setting [9], 95 to 100%; under setting [10], 85 to 94%; under setting [11], 0 to 29%; under setting [12], 85 to 94%; under setting [13], 95 to 100%. Moreover, the pest or weed control at 140 g/ha was 30 to 44% under setting [14] and 60 to 74% under setting [15].

As for `N#Cc1cc(C(F)(F)F)cc(Cl)c1-c1ccc(Cl)c(C(=O)O)n1` [F162, 3-Chloro-6-(2-chloro-6-cyano-4-(trifluoromethyl)phenyl)picolinic acid], the pest or weed control at 140 g/ha under setting [1] lay within 0 to 29%; the pest or weed control at 140 g/ha under setting [2] lay in the range of 95 to 100%; the pest or weed control at 140 g/ha under setting [3] is 30 to 44%; the pest or weed control at 140 g/ha under setting [4] was 95 to 100%; the pest or weed control at 140 g/ha under setting [5] was in the range of 85 to 94%; the pest or weed control at 140 g/ha under setting [6] was 0 to 29%. Also, the pest or weed control at 140 g/ha is, setting by setting: under setting [7], 75 to 84%; under setting [8], 95 to 100%; under setting [9], 95 to 100%; under setting [10], 95 to 100%; under setting [11], 0 to 29%; under setting [12], 85 to 94%. Besides, the pest or weed control at 140 g/ha reads like this: under setting [13], 60 to 74%; under setting [14], 0 to 29%; under setting [15], 45 to 59%.

`COC(=O)c1nc(-c2ccc(OCC(F)(F)F)cc2)c(F)cc1Cl` [F163, Methyl 3-chloro-5-fluoro-6-(4-(2,2,2-trifluoroethoxy)phenyl) picolinate]: the pest or weed control at 140 g/ha runs as follows: under setting [1], 0 to 29%; under setting [2], 30 to 44%; under setting [3], 0 to 29%; under setting [4], 45 to 59%; under setting [5], 0 to 29%; under setting [6], 0 to 29%. In addition, the pest or weed control at 140 g/ha was 0 to 29% under setting [7]; 0 to 29% under setting [8]; 45 to 59% under setting [9]; 0 to 29% under setting [10]; 0 to 29% under setting [11]; 0 to 29% under setting [12]. Besides, the pest or weed control at 140 g/ha runs as follows: under setting [13], 0 to 29%; under setting [14], 0 to 29%; under setting [15], 0 to 29%.

As for `O=C(O)c1nc(-c2ncc(C(F)(F)F)cc2Cl)ccc1Cl` [F164, 3′,5-Dichloro-5′-(trifluoromethyl)-[2,2′-bipyridine]-6-carboxylic acid], the pest or weed control at 140 g/ha runs as follows: under setting [1], 60 to 74%; under setting [2], 95 to 100%; under setting [3], 60 to 74%; under setting [4], 95 to 100%; under setting [5], 85 to 94%; under setting [6], 0 to 29%. In addition, the pest or weed control at 140 g/ha runs as follows: under setting [7], 95 to 100%; under setting [8], 85 to 94%; under setting [9], 95 to 100%; under setting [10], 95 to 100%; under setting [11], 60 to 74%; under setting [12], 95 to 100%. For the same compound, the pest or weed control at 140 g/ha lay in the range of 85 to 94% under setting [13], 30 to 44% under setting [14] and 85 to 94% under setting [15].

Consider `COC(=O)c1nc(-c2ccc(OC(F)F)cc2)c(F)cc1Cl` [F165, Methyl 3-chloro-6-(4-(difluoromethoxy)phenyl)-5-fluoropicolinate], for which the pest or weed control at 140 g/ha is 0 to 29% under setting [1]; 85 to 94% under setting [2]; 0 to 29% under setting [3]; 45 to 59% under setting [4]; 60 to 74% under setting [5]; 0 to 29% under setting [6]. Besides, the pest or weed control at 140 g/ha under setting [7] lay within 75 to 84%; the pest or weed control at 140 g/ha under setting [8] lay within 60 to 74%; the pest or weed control at 140 g/ha under setting [9] is 75 to 84%; the pest or weed control at 140 g/ha under setting [10] lay in the range of 30 to 44%; the pest or weed control at 140 g/ha under setting [11] lay within 0 to 29%; the pest or weed control at 140 g/ha under setting [12] lay in the range of 75 to 84%. The pest or weed control at 140 g/ha was 85 to 94% under setting [13], 0 to 29% under setting [14] and 0 to 29% under setting [15].

As for `COC(=O)c1nc(-c2ccc(C(F)(F)F)cc2OC)c(F)cc1Cl` [F166, Methyl 3-chloro-5-fluoro-6-(2-methoxy-4-(trifluoromethyl)phenyl)picolinate], the pest or weed control at 140 g/ha is 0 to 29% under setting [1]; 95 to 100% under setting [2]; 75 to 84% under setting [3]; 85 to 94% under setting [4]; 85 to 94% under setting [5]; 0 to 29% under setting [6]. In addition, the pest or weed control at 140 g/ha fell in the range of 75 to 84% under setting [7]; 95 to 100% under setting [8]; 95 to 100% under setting [9]; 95 to 100% under setting [10]; 0 to 29% under setting [11]; 85 to 94% under setting [12]. Also, the pest or weed control at 140 g/ha under setting [13] is 85 to 94%, the pest or weed control at 140 g/ha under setting [14] was in the range of 30 to 44% and the pest or weed control at 140 g/ha under setting [15] was 75 to 84%.

For the compound `COC(=O)c1nc(-c2ccc(C(F)(F)F)nc2F)ccc1Cl` [F167, Methyl 5-chloro-2′-fluoro-6′-(trifluoromethyl)-[2,3′-bipyridine]-6-carboxylate], the pest or weed control at 140 g/ha reads like this: under setting [1], 0 to 29%; under setting [2], 60 to 74%; under setting [3], 0 to 29%; under setting [4], 75 to 84%; under setting [5], 0 to 29%; under setting [6], 0 to 29%. Also, the pest or weed control at 140 g/ha lay within 0 to 29% under setting [8]; 60 to 74% under setting [9]; 30 to 44% under setting [10]; 0 to 29% under setting [11]; 60 to 74% under setting [12]; 75 to 84% under setting [13]. The pest or weed control at 140 g/ha fell in the range of 0 to 29% under setting [14] and 0 to 29% under setting [15].
